In publication PMC11110238, “Synthesis of novel carbazole hydrazine-carbothioamide scaffold as potent antioxidant, anticancer and antimicrobial agents” (BMC Chemistry, 2024):
In brackets after ≈: the same amount, converted by molar mass. Read-outs that look alike come from different tables or passages of the source. Marks after values point to notes of the source that are not given here.

Key:
MCF-7 cell line = assay: MTT cell viability, MCF-7 cancer cell line; format: cell-based; conditions: for IC50: Homo sapiens, MCF7, MTT, 48 h, read-out: IC50 values Carbazole Derivatives Effect on MCF-7 Cell Line
Procedure: MCF-7 cancer cell lines were cultured at Dulbecco’s Modified Eagle Medium High Glucose (DMEM) (EuroClone, Via Figino, Italy); fetal bovine serum (FBS) and MTT (3-(4,5-Dimethylthiazol-2-yl)-2,5-Diphenyl Tetrazolium Bromide) were provided by Sigma-Aldrich (Darmstadt, Germany); ApopNexin Annexin-V-FITC with PI Apoptosis Kit was obtained from Merck (Darmstadt, Germany); Total RNA Isolation Kit was provided by Analytic Jena (Jena, Germany), SensiFast cDNA Synthesis Kit was provided by Meridian Bioscience (Cincinati, USA), SybrGreen Master Mix was obtained from EuroClone (Via Figino, Italy).
(§1) Cells (MCF-7 and L929) were incubated in 75 cm^2 sterile flasks with 10% FBS, 100 U/mL penicillin, and 100 µg/mL streptomycin. The cells were grown at 37 ^○C in 5% CO2, and MTT was used to screen the viability of the cells. Cells were seeded at a density of 10^4 cells per well. The cells were then cultured for 24 h in 100 µl of DMEM complete medium. After pretreatment with different concentrations of the compounds for 48 h, 10 µl of 5 mg/mL MTT solution was added to each well and incubated for 4 h at 37 ^○C, and 100 µl of DMSO was used in each well to dissolve the blue formazan crystals. Then, the absorbance was measured at 570 nm. The cell viability percentages of compound 4o against MCF-7 cancer cell lines and L929 normal cell lines were presented in Fig. 2 in comparison with doxorubicin anticancer agent.

[1] = DPPH radical scavenging assay; format: biochemical; conditions: 30 min, 517 nm
Procedure: To estimate the Carbazole derivatives' antioxidant potential, a solution of each compound (1 mM/mL) in methanol was serially diluted with methanol to obtain a concentration of 1, 2, 5, 10, 20, 50, and 100 µM/mL. Then, DPPH (2,2-diphenyl-1-picrylhydrazyl) reagent (Sigma, USA) was dissolved in 0.002% w/v methanol and mixed with the previously prepared working concentrations in a 1:1 ratio. The same procedures were repeated for Trolox (Sigma-Aldrich, Denmark), which was used as a positive control. All of the solutions were kept in the dark chamber for 30 min at an ordinary temperature. Then, their absorbance values were measured at a wavelength of 517 nm utilizing a UV–visible spectrophotometer. The DPPH inhibition potentials by Carbazole derivatives and Trolox were determined employing the following equation: DPPH inhibition(\%)=abs(blank)-abs(sample)/abs(blank)∗100\% where absblank is the blank absorbance and abssample is the absorbance of the samples [58]. The antioxidant half-maximal inhibitory concentration (IC50) of the synthesized carbazole derivatives and Trolox were assessed by using an online tool “Quest Graph™ IC50 Calculator.” AAT Bioquest, Inc., 25 May. 2023, https://www.aatbio.com/tools/ic50-calculator.

L929 normal cell lines = assay: MTT cell viability, L929 normal cell line; format: cell-based; conditions: Mus musculus, 48 h
Procedure: as §1

MCF-7 cells = assay: Annexin-V-FITC/PI apoptosis assay by flow cytometry; format: cell-based; conditions: MCF-7, sum of pre-apoptotic, post-apoptotic and necrosis
Procedure: FITC Annexin-V apoptosis detection kit with PI, ApopNexinTM FITC (APT750, Merk, Germany) was used for apoptosis assay. MCF-7 cells were seeded into a 6-well plate (1 × 10^6 cells per well). Then, the cells were incubated with the compounds at the cytotoxic concentration by employing a cell viability assay. Apoptotic cells were cultured with the compounds, the medium was removed after incubation, and the cells were washed twice with 5 mL of pre-chilled phosphate-buffered saline. Cells washed with PBS were lifted with Trypsin–EDTA and centrifuged at 400 rpm for 5 min. The resulting cells were each treated with 1 mL of cold 1-X Binding Buffer (Sigma Aldrich, USA). Then, 200 μL of the mixture was taken and placed in a flow cytometry tube, and the other part containing cells was kept on ice. First, 3 µl of ApopNexinTM FITC and 2 µl of 100X propidium iodide (PI) (P4170, Sigma Aldrich, USA) were added to the solution taken into the sample tube and mixed. The resulting mixture was incubated for 15 min in the dark at room temperature. At the end of the incubation, the samples were measured in flow cytometry (Beckman Coulter Cytoflex) and data were obtained.

Escherichia coli = assay: MIC and MBC test, E. coli; format: cell-based
Procedure: (§2) Using Muller Hinton agar medium, the antibacterial activity was evaluated by using 24 h cultures of Escherichia coli, Staphylococcus aureus, and Candida albicans. E. coli and S. aureus were incubated in 1% Mueller Hinton Broth (MHB) liquid medium at 37 °C for 24 h; C. albicans was incubated in Sabouraud Dextrose Broth (SDB) at 30 °C for 48 h. MIC (Minimum Inhibitory Concentration) and MBC (Minimum Bactericidal Concentration) tests were performed to determine antimicrobial activity. This stage was carried out in a sterile cabinet.
(§3) The density of microorganisms in fresh cultures was adjusted according to the MacFarland 0.5 scale. For that, the microorganisms were centrifuged at 4000 rpm for 20 min. The supernatant was poured off, and the pellet was washed with 1 mL of 0.9% NaCl solution (physiological saline). The centrifugation was then repeated. The pellet was dissolved again with saline solution and adjusted to 0.5 MacFarland. In the experiment performed in a sterile 96-well plate, compound 4o was diluted ½ with DMSO to prepare a stock solution. In the first, 100 µl of medium and 100 µl of compound 4o as initial dilutions. Dilution was performed seven times at a ratio of ½. Then, 5 µl of fresh microorganism cultures prepared as MacFarland 0.5 were inoculated. The control group was prepared as 100 µl medium, 100 µl distilled water, and 5 µl microorganisms. The plates were incubated at 37 °C and 30 °C for 24 h.
(§4) After incubation, 10 µl of the sample was taken, dropped onto the respective media, and incubated for 24 h at appropriate temperatures to clearly distinguish the residues left by the compound 4o and the growth of microorganisms. Mueller Hinton Agar (MHA) was used for E. coli and S. aureus, and Potato Dextrose Agar (PDA) was used for C. albicans. After incubation, MIC and MBC values were determined. The first well with a significant decrease in growth was considered as MIC, and the first well with no growth was considered as MBC [59, 60].

Staphylococcus aureus = assay: MIC and MBC test, S. aureus; format: cell-based
Procedure: as §2, §3, §4

[2] = set-up: method as in PMID 37328860; conditions: previous preliminary work; read-out: Antioxidant IC50 against DPPH; cited from earlier work
Candida albicans = assay: MIC and MBC test, C. albicans; format: cell-based
Procedure: as §2, §3, §4

Compound | IC50 (MCF-7 cell line) [µM] | melting point [°C] | IC50 [1] [µM] | further results
O=C(Cn1c2ccccc2c2ccccc21)NNC(=S)Nc1ccccc1 [Compound 4a, 2-(2-(9H-carbazol-9-yl)acetyl)-N-phenylhydrazine-1-carbothioamide] | > 20 | 235 to 237 | 52.1 ± 2.42 | –
COc1cccc(NC(=S)NNC(=O)Cn2c3ccccc3c3ccccc32)c1 [Compound 4b, 2-(2-(9H-carbazol-9-yl)acetyl)-N-(3-methoxyphenyl)hydrazine-1-carbothioamide] | > 20 | 218 to 220 | 5.15 ± 1.02 | –
O=C(Cn1c2ccccc2c2ccccc21)NNC(=S)NCCCN1CCOCC1 [Compound 4c, 2-(2-(9H-carbazol-9-yl)acetyl)-N-(3-morpholinopropyl)hydrazine-1-carbothioamide] | > 20 | 189 to 191 | 8.99 ± 2.17 | –
O=C(Cn1c2ccccc2c2ccccc21)NNC(=S)Nc1cccc2ccccc12 [Compound 4d, 2-(2-(9H-carbazol-9-yl)acetyl)-N-(naphthalen-1-yl)hydrazine-1-carbothioamide] | > 20 | 222 to 224 | 29.7 ± 1.77 | –
O=C(Cn1c2ccccc2c2ccccc21)NNC(=S)Nc1ccc([N+](=O)[O-])cc1 [Compound 4e, 2-(2-(9H-carbazol-9-yl)acetyl)-N-(4-nitrophenyl)hydrazine-1-carbothioamide] | > 20 | 235 to 237 | 50.8 ± 1.88 | –
COc1ccc(NC(=S)NNC(=O)Cn2c3ccccc3c3ccccc32)cc1 [Compound 4f, 2-(2-(9H-carbazol-9-yl)acetyl)-N-(4-methoxyphenyl)hydrazine-1-carbothioamide] | > 20 | 210 to 212 | 3.41 ± 1.05 | –
O=C(Cn1c2ccccc2c2ccccc21)NNC(=S)Nc1ccc(Br)cc1 [Compound 4g, 2-(2-(9H-carbazol-9-yl)acetyl)-N-(4-bromophenyl)hydrazine-1-carbothioamide] | > 20 | 255 to 257 | 4.14 ± 0.75 | –
O=C(Cn1c2ccccc2c2ccccc21)NNC(=S)Nc1ccc(Cl)cc1 [Compound 4h, 2-(2-(9H-carbazol-9-yl)acetyl)-N-(4-chlorophenyl)hydrazine-1-carbothioamide] | > 20 | 235 to 237 | 0.73 ± 0.54 | –
O=C(Cn1c2ccccc2c2ccccc21)NNC(=S)Nc1ccc(C(F)(F)F)cc1 [Compound 4k, 2-(2-(9H-carbazol-9-yl)acetyl)-N-(4-(trifluoromethyl)phenyl)hydrazine-1-carbothioamide] | > 20 | 177 to 179 | 2.08 ± 0.72 | –
O=C(Cn1c2ccccc2c2ccccc21)NNC(=S)NC1CCCCC1 [Compound 4m, 2-(2-(9H-carbazol-9-yl)acetyl)-N-cyclohexylhydrazine-1-carbothioamide] | > 20 | 211 to 213 | 2.37 ± 1.7 | –
Cc1ccc(NC(=S)NNC(=O)Cn2c3ccccc3c3ccccc32)cc1 [Compound 4n, 2-(2-(9H-carbazol-9-yl)acetyl)-N-(p-tolyl)hydrazine-1-carbothioamide] | > 20 | 180 to 182 | 1.52 ± 0.58 | –
O=C(Cn1c2ccccc2c2ccccc21)NNC(=S)NCc1ccccc1 [Compound 4p, 2-(2-(9H-carbazol-9-yl)acetyl)-N-benzylhydrazine-1-carbothioamide] | > 20 | 169 to 171 | 10.2 ± 1.85 | –
O=C(Cn1c2ccccc2c2ccccc21)NNC(=S)NC1CC2CCC1C2 (stereo not shown) [Compound 4r, 2-(2-(9H-carbazol-9-yl)acetyl)-N-(bicyclo[2.2.1]heptan-2-yl)hydrazine-1-carbothioamide] | 4.99 ± 0.42 | 199 to 201 | 19.9 ± 1.55 | –
C[C@H]1c2cccc(O)c2C(=O)C2=C(O)[C@]3(O)C(=O)C(C(N)=O)=C(O)[C@@H](N(C)C)[C@@H]3[C@@H](O)[C@@H]21 [Doxycyline, reference compound] | – | – | – | MBC (Escherichia coli): 50.9^a µM; MIC (Escherichia coli): 5.09^a µM; MBC (Staphylococcus aureus): 63.0^a µM
COc1ccc(S(=O)(=O)NNC(=O)Cn2c3ccccc3c3ccccc32)cc1 [St.1] | – | – | – | IC50 [2]: 1.05 µM
OC(Cn1cncn1)(Cn1cncn1)c1ccc(F)cc1F [fluconazole, reference compound] | – | – | – | MBC (Candida albicans): 16.3 µM (≈ 4.99 µg/mL)

Continued, in another order:

IC50 (MCF-7 cell line) [µM] | melting point [°C] | IC50 [1] [µM] | Compound | further results
> 20 | 170 to 172 | 3.05 ± 1.75 | O=C(Cn1c2ccccc2c2ccccc21)NNC(=S)NCCc1ccccc1 [Compound 4s, 2-(2-(9H-carbazol-9-yl)acetyl)-N-phenethylhydrazine-1-carbothioamide] | –
> 20 | 186 to 188 | 15.9 ± 2.07 | CC(C)NC(=S)NNC(=O)Cn1c2ccccc2c2ccccc21 [Compound 4t, 2-(2-(9H-carbazol-9-yl)acetyl)-N-isopropylhydrazine-1-carbothioamide] | –
> 20 | 205 to 207 | 0.38 ± 0.05 | C=CCNC(=S)NNC(=O)Cn1c2ccccc2c2ccccc21 [Compound 4y, 2-(2-(9H-carbazol-9-yl)acetyl)-N-allylhydrazine-1-carbothioamide] | –
> 20 | 173 to 175 | 21.6 ± 0.87 | CNC(=S)NNC(=O)Cn1c2ccccc2c2ccccc21 [Compound 4z, 2-(2-(9H-carbazol-9-yl)acetyl)-N-methylhydrazine-1-carbothioamide] | –
5.06 ± 0.21 | – | – | COc1cccc2c1C(=O)c1c(O)c3c(c(O)c1C2=O)C[C@@](O)(C(=O)CO)C[C@@H]3O[C@H]1C[C@H](N)[C@H](O)[C@H](C)O1 [Doxorubicin, reference compound] | selective index (SI) (MCF-7 cell line; L929 vs MCF-7): 3.82; IC50 (L929 normal cell lines): 19.3 µM; total dead cells (MCF-7 cells): 14.50%
– | – | 7.71 ± 1.47 | Cc1c(C)c2c(c(C)c1O)CCC(C)(C(=O)O)O2 (stereo not shown) [Trolox, reference compound] | –
